Reference: ChEMBL document CHEMBL5120859, “Optimization of 4-arylthiophene-3-carboxylic acid derivatives as inhibitors of ANO1: Lead optimization studies toward their analgesic efficacy for inflammatory pain” (Eur J Med Chem, 2022)
Calls of active or inactive are those of the source. The rule behind the calls is not given here.

Assays:
[1] = MRT (0 to t) in C57BL/6 mouse at 80 mg/kg,IG measured upto 24 hrs by HPLC-MS/MS analysis; format: ADME, organism-based; settings: in vivo, po
[2] = Ratio of drug concentration in brain to plasma in C57BL/6 mouse at 40 mg/kg,IG measured after 24 hrs by HPLC analysis; format: ADME, organism-based; settings: po
[3] = Plasma concentration in C57BL/6 mouse at 40 mg/kg,IG measured after 24 hrs by HPLC analysis; format: ADME, organism-based; settings: po
[4] = biological target: Sodium channel protein type 7 subunit alpha (Homo sapiens) (UniProt Q01118); assay: Inhibition of Nav1.7 (unknown origin) in resting condition at 30 uM by whole cell patch clamp electrophysiology relative to control
[5] = system: Mus musculus; assay: Analgesic activity in C57BL/6 mouse model of capsaicin-induced allodynia assessed as reduction on foot licking pain response at 80 mg/kg,po measured after 5 mins; format: functional, organism-based
[6] = biological target: T1, Anoctamin-2 (Homo sapiens, UniProt Q9NQ90); assay: Inhibition of human ANO2 expressed in HEK293 cells incubated for 5 mins by whole cell patch clamp electrophysiology; format: cell-based
T1 sequence (Q9NQ90 whole entry): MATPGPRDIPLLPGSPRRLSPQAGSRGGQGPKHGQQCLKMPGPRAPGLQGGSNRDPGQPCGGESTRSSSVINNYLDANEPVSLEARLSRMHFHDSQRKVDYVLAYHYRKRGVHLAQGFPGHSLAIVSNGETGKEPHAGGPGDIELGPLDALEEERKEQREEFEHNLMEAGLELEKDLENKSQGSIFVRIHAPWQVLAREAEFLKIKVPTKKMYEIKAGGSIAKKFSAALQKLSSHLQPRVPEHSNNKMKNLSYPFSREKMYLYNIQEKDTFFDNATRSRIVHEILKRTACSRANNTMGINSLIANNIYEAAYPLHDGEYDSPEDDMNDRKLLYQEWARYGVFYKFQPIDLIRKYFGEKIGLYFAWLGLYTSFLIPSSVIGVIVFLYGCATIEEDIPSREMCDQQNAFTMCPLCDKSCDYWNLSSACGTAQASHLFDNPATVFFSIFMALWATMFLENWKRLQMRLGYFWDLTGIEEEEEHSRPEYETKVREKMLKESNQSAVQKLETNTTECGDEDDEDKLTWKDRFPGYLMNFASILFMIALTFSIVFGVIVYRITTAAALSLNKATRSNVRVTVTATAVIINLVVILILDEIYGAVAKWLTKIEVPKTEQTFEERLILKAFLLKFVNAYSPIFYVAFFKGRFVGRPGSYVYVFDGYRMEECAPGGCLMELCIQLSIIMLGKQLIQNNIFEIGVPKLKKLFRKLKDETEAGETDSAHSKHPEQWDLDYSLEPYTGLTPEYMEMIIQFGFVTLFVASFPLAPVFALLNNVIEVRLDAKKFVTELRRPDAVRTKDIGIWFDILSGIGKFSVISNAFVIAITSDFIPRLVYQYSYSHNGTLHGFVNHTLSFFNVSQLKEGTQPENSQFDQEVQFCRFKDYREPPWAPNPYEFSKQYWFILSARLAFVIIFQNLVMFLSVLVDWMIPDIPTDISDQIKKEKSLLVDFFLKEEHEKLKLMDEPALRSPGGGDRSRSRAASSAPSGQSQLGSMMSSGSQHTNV

[7] = biological target: T2, Anoctamin-2 (Homo sapiens) (UniProt Q9NQ90); assay: Inhibition of human ANO2 expressed in HEK293 cells at 30 uM incubated for 5 mins by whole cell patch clamp electrophysiology relative to control; format: cell-based
T2 sequence (whole entry): T1 sequence (Q9NQ90 whole entry)

[8] = system: Mus musculus; assay: Analgesic activity in C57BL/6 mouse model of formalin-induced allodynia assessed as reduction on foot licking pain response at 40 to 80 mg/kg,po measured after 10 mins; format: functional, organism-based; settings: dose 40-80 mg/kg
[9] = MRT (0 to t) in C57BL/6 mouse at 40 mg/kg,IG measured upto 24 hrs by HPLC-MS/MS analysis; format: ADME, organism-based; settings: in vivo, po
[10] = MRT (0 to t) in C57BL/6 mouse at 40 mg/kg,iv measured upto 24 hrs by HPLC-MS/MS analysis; format: ADME, organism-based; settings: in vivo
[11] = Cmax in C57BL/6 mouse at 80 mg/kg,IG measured upto 24 hrs by HPLC-MS/MS analysis; format: ADME, organism-based; design: dose 80 mg/kg, time < 24 hrs, route ig; settings: in vivo, po
[12] = Tmax in C57BL/6 mouse at 80 mg/kg,IG measured upto 24 hrs by HPLC-MS/MS analysis; format: ADME, organism-based; settings: in vivo, po
[13] = Bioavailability in C57BL/6 mouse at 80 mg/kg,IG measured upto 24 hrs by HPLC-MS/MS analysis; format: ADME, organism-based; settings: in vivo, po
[14] = Ratio of drug concentration in brain to plasma in C57BL/6 mouse at 40 mg/kg,IG measured after 0.25 hrs by HPLC analysis; format: ADME, organism-based; settings: po
[15] = biological target: Transient receptor potential cation channel subfamily V member 1 (Homo sapiens) (UniProt Q8NER1); assay: Inhibition of TRPV1 (unknown origin) at a holding potential +100 mV at 30 uM by whole cell patch clamp electrophysiology relative to control
[16] = AUC (0 to t) in C57BL/6 mouse at 40 mg/kg,IG measured upto 24 hrs by HPLC-MS/MS analysis; format: ADME, organism-based; design: dose 40 mg/kg, time < 24 hrs, route ig; settings: in vivo, po
[17] = system: Mus musculus; assay: Analgesic activity in C57BL/6 mouse model of CFA-induced mechanical hyperalgesia assessed as […] at 40 to 80 mg/kg,po measured after 12 hrs by Von Frey test; format: functional, organism-based; settings: dose 40-80 mg/kg

Chain of Sodium channel protein type 7 subunit alpha (Homo sapiens) (Q01118 whole entry): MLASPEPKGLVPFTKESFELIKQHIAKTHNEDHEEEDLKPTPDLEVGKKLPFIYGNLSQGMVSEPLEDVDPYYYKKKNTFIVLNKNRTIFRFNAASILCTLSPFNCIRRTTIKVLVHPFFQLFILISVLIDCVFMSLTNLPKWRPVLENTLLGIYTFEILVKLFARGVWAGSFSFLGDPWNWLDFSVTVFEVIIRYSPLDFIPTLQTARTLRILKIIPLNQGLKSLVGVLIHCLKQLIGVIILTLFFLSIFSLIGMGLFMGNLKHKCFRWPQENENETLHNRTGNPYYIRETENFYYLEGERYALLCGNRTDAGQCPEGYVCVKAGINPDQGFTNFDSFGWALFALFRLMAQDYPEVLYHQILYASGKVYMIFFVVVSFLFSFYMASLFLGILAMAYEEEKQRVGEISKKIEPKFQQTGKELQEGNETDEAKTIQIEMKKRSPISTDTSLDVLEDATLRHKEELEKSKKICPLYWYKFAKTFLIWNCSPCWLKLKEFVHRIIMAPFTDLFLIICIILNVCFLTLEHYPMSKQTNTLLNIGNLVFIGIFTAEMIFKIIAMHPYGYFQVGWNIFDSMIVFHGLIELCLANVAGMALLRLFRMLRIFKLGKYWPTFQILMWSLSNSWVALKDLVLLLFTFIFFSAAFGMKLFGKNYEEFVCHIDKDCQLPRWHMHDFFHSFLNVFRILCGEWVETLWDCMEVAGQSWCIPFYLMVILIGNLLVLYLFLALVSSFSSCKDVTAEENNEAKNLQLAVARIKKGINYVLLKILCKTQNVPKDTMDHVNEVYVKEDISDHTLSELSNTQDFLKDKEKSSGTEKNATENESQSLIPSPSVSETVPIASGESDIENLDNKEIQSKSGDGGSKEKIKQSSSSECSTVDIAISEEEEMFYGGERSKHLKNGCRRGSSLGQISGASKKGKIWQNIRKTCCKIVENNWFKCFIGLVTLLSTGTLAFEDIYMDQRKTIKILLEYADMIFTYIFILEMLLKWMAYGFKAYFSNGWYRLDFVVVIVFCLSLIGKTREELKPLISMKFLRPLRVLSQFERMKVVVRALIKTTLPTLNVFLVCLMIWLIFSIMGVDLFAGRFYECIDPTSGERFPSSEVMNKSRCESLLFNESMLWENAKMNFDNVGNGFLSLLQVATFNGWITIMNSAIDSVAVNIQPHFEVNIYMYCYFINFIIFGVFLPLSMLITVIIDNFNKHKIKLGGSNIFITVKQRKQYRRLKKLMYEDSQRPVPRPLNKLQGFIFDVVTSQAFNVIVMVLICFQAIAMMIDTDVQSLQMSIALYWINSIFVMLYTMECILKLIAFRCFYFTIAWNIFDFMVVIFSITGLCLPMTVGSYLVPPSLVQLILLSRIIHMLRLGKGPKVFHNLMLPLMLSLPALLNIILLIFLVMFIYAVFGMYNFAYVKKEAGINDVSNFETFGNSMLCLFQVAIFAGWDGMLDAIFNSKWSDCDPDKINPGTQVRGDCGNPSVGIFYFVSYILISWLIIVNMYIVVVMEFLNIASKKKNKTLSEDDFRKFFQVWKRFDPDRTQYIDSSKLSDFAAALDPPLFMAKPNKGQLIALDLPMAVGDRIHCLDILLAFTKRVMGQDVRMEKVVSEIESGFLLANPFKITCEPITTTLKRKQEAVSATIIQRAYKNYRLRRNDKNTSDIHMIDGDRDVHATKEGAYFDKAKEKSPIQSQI
Chain of Transient receptor potential cation channel subfamily V member 1 (Homo sapiens) (Q8NER1 whole entry): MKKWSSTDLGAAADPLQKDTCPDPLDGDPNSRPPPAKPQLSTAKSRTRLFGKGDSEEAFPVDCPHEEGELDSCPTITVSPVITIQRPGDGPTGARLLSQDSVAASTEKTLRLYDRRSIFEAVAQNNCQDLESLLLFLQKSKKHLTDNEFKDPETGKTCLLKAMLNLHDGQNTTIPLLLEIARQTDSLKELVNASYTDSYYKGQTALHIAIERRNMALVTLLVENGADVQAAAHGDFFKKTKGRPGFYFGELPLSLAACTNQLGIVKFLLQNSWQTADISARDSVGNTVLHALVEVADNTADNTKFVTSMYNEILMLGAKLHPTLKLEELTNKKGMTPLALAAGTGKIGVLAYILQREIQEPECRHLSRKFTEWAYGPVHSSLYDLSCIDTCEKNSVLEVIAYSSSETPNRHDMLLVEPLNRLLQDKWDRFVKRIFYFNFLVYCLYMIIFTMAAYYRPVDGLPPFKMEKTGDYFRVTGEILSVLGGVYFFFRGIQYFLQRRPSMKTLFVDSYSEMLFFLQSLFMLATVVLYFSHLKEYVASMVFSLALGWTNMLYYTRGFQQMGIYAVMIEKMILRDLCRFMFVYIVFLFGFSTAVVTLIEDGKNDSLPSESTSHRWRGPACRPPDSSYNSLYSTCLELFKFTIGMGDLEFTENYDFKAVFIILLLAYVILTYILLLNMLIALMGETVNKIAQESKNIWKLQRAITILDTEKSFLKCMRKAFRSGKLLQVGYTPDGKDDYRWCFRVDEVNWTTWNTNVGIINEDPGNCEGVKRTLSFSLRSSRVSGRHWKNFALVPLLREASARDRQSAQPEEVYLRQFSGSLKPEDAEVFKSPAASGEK

Structure (SMILES): O=C(Nc1scc(-c2ccc(Cl)cc2)c1C(=O)O)c1cc(F)ccc1F
- MRT last at 24 h [1]: 7.6 h
- Ratio [2]: 4.5%
- concentration at 24 h [3]: 1.67 µg/mL
- inhibition [4]: 4.4%
- Activity [5]: Active
- IC50 [6]: 8.7 µM
- inhibition [7]: 72.8%
- Activity [8]: Active
- MRT last at 24 h [9]: 5.4 h
- MRT last at 24 h [10]: 4.9 h
- Cmax [11]: 130 µg/mL
- Tmax [12]: 0.17 h
- bioavailability [13]: 85.1%
- Ratio [14]: 1.5%
- inhibition [15]: 17%
- AUC(0-t) at 24 h [16]: 265 µg·h/mL
- Activity [17]: Active
